Reference: patent US9790193B2, “Semicarbazide-sensitive amine oxidase inhibitors for use as analgesics in traumatic neuropathy and neurogenic inflammation” (PÉCSI TUDOMÁNYEGYETEM, priority 2014, dated 2017)
Entries after “also recorded” stand apart in the source; their conditions may differ.

What was measured:
[1] = system: sciatic nerve ligation-induced mechanical hyperalgesia; assay: Sciatic nerve ligation-induced traumatic mononeuropathy, mechanical hyperalgesia in mice (dynamic plantar aesthesiometry); type: in vivo, male C57Bl/6 mice; conditions: mouse, injured paw, single dose 20 mg/kg i.p., 15 minutes after administration, vs postoperative control values
Procedure: (§1) The solutions were prepared freshly on the day of the experiment with sterile saline. SZV-1287 (prepared according to WO 2010/029379 A1) dissolved in saline and the solution was clear. The SZV-1911 (prepared according to WO2006/094201 and WO2005/014530) solution was prepared with Tween 80 and ethanol, stirred properly with a vortex, heated moderately to 42° C. and sonicated, but it was still opalescent. The i.p. administered volume was 0.2 ml/100 g body weight from 10 mg/ml in rats solution and 0.1 m/10 g body weight from 2 mg/ml solution to achieve the 20 mg/kg doses. The solvent of SZV-1911 was given to the vehicle-treated animals in the same volume.
Sciatic nerve ligation-induced traumatic mononeuropathy experiments were performed on male Wistar rats (250-300 g), and on male C57Bl/6 mice as well as resiniferatoxin- or formalin-induced hyperalgesia. […]
On the 3rd and on the 7th day following the nerve ligation, the mechano-nociceptive thresholds were determined directly before and 15 min after i.p. drug administration to observe the difference between pre-injection and post-injection thresholds in mice. We determined the developing cold allodynia following the sciatic nerve ligation at Days 3 and 7. […]
The mechanical touch sensitivity thresholds of the plantar surface of the paws was determined by aesthesiometry (Ugo Basile Dynamic Plantar Aesthesiometer 37400; Comerio, Italy). […]

[2] = system: sciatic nerve ligation-induced mechanical allodynia; assay: Sciatic nerve ligation-induced traumatic mononeuropathy, mechanical allodynia in rats (dynamic plantar aesthesiometry); type: in vivo, male Wistar rats; conditions: for change of the mechanonociceptive thresholds, contralateral side of the operated rats / inhibitory effect on mechanical allodynia / mechanical allodynia (decrease of withdrawal threshold vs initial control) after drug injection: rat; for change of the mechanonociceptive thresholds, contralateral side of the operated rats: contralateral paw; for change of the mechanonociceptive thresholds, contralateral side of the operated rats / mechanical allodynia (decrease of withdrawal threshold vs initial control) after drug injection / change of the mechanonociceptive thresholds, sham-operated group: 20 mg/kg i.p.; for inhibitory effect on mechanical allodynia / mechanical allodynia (decrease of withdrawal threshold vs initial control) after drug injection: operated limb; for inhibitory effect on mechanical allodynia: day 7, 20 mg/kg i.p., post- vs pre-injection; for mechanical allodynia (decrease of withdrawal threshold vs initial control) after drug injection: day 7 after nerve ligation, 15 min after administration, mean±s.e.m.; for change of the mechanonociceptive thresholds, sham-operated group: sham-operated rats
Procedure: as §1
(§2) Sciatic nerve ligation-induced traumatic mononeuropathy experiments were performed on male Wistar rats (250-300 g), and on male C57Bl/6 mice as well as resiniferatoxin- or formalin-induced hyperalgesia. The original breeding pairs of the animals were purchased from Charles River Ltd. All the animals were kept in the Animal Facility of the Department of Pharmacology and Pharmacotherapy at the University of Pécs at 24-25° C. provided with standard chow and water ad libitum.
Before all experiments one conditioning and three reliable control threshold measurements were performed on three consecutive days. All operations were performed by the same operator, who was blinded to the animal group assignments and the treatment allocation (FIG. 1A for the rat, B for the mouse experimental paradigm).
(§3) On the 3rd and on the 7th day following the nerve ligation, the mechano-nociceptive thresholds were determined directly before and 15 min after i.p. drug administration to observe the difference between pre-injection and post-injection thresholds in mice. We determined the developing cold allodynia following the sciatic nerve ligation at Days 3 and 7. In rats we examined the developing mechanical allodynia just 7 days after the sciatic nerve ligation on the same way like in mice. Only animals with a minimum of 25% hyperalgesia/allodynia were included in the study (Seltzer et al., Pain., 1990, 43(2):205-18; Pintér et al., Naunyn Schmiedebergs Arch Pharmacol., 2002, 366(2):142-50.).
Mice were anaesthesized with a combination of ketamine and xylazine (100 mg/kg and 5 mg/kg i.p. respectively), but in rats Na-pentobarbital (40 mg/kg i.p) were used. The common sciatic nerve was exposed unilaterally on the right side high in the thigh and ⅓-½ of the nerve trunk was carefully separated and tightly ligated using a siliconised silk suture (Ethicone 5-0 and 8.0, respectively). Then the wound was closed and the animals were allowed to survive for 8 days (Seltzer, 1990; Malmberg and Basbaum 1998; Bolcskei et al. 2005; Sandor et al. 2010). During this period, signs of spontaneous pain (holding the legs in elevated position transiently for 2-3 days) and mechanical hyperalgesia and cold allodynia developed. In order to investigated the efficacy of these drugs we examined the drop of the mechanical touch sensitivity on Day 3, however the decrease of the mechanical threshold develops fully 7 days after the surgery.
The mechanical touch sensitivity thresholds of the plantar surface of the paws was determined by aesthesiometry (Ugo Basile Dynamic Plantar Aesthesiometer 37400; Comerio, Italy). This is an electronic von Frey device, in which the animals moved about freely in one of the compartments of the enclosure positioned on the metal mesh surface. Following acclimation after cessation of exploratory behaviour, the touch stimulator unit was placed under the animal's paw, using the adjustable angled-mirror to position the filament below the target area of the plantar surface. Then an electrodynamic actuator of proprietary design lifted a straight metal filament, which touched the plantar surface and began to exert an increasing upward force at a preset rate of application until a stop signal (removal of the paw) was attained. The paw withdrawal threshold was obtained in grams. […]

RTX-induced hyperalgesia = assay: Resiniferatoxin-evoked thermal and mechanical hyperalgesia in mice; type: in vivo, male C57Bl/6 mice; conditions: mouse; for drop of mechanonociceptive threshold after RTX at 2 hours: solvent group 47.1±6%; for acute neurogenic inflammatory heat allodynia: only significant in case of SZV-1287 after RTX
Procedure: as §1, §2
The mechanical touch sensitivity thresholds of the plantar surface of the paws was determined by aesthesiometry (Ugo Basile Dynamic Plantar Aesthesiometer 37400; Comerio, Italy). This is an electronic von Frey device, in which the animals moved about freely in one of the compartments of the enclosure positioned on the metal mesh surface. Following acclimation after cessation of exploratory behaviour, the touch stimulator unit was placed under the animal's paw, using the adjustable angled-mirror to position the filament below the target area of the plantar surface. Then an electrodynamic actuator of proprietary design lifted a straight metal filament, which touched the plantar surface and began to exert an increasing upward force at a preset rate of application until a stop signal (removal of the paw) was attained. The paw withdrawal threshold was obtained in grams. Hyperalgesia or allodynia (decrease of the withdrawal thresholds) was expressed as percentage by comparing the data of each individual animal to the averaged three initial control thresholds.
Resiniferatoxin (RTX) is a potent agonist of Transient Receptor Potential Vanilloid 1 (TRPV1) receptors, which are mainly expressed on capsicin-sensitive sensory nerve ending. Intraplantarly (i.pl.) injection of RTX (0.03 μg/ml; 20 μl) into one of the hindpaws induced an acute inflammation and a robust drop of heat and mechanical thresholds.
The noxious heat threshold of the paw, defined as the lowest temperature evoking nocifensive behaviour—was measured with an increasing-temperature hot plate (IITC Life Science, Woodland Hills, Calif., USA). After habituation, mice were placed onto the plate, which was then heated up from room temperature at a rate of 12° C./min until the animals showing nocifensive behaviour (licking, lifting or shaking one of the hindpaws). The corresponding plate temperature was considered as the noxious heat threshold.
Lines represent thermal and mechanical hyperalgesia before drug injection and 5, 10, 15, 20 min as well as 2, 4, 6, 24 hours, respectively after compound/solvent administration. Results are expressed as means±s.e.m. of the thermo- and mechanonociceptive threshold changes of n=7-8 per groups. Data were analysed with Two-way ANOVA following Bonferroni's post-test in comparison to determine differences between the pre- and post-injection values of the respective groups **p<0.01, *** p<0.001 SZV-1287 vs. saline and ### p<0.001 SZV-1911 vs. saline.

[3] = system: formalin-induced acute nocifensive behaviours and hyperalgesia; assay: Formalin-induced acute nocifensive behaviour and hyperalgesia in mice; type: in vivo, male C57Bl/6 mice; conditions: mouse
Procedure: as §1
Sciatic nerve ligation-induced traumatic mononeuropathy experiments were performed on male Wistar rats (250-300 g), and on male C57Bl/6 mice as well as resiniferatoxin- or formalin-induced hyperalgesia. The original breeding pairs of the animals were purchased from Charles River Ltd. All the animals were kept in the Animal Facility of the Department of Pharmacology and Pharmacotherapy at the University of Pécs at 24-25° C. provided with standard chow and water ad libitum. […]
The noxious heat threshold of the paw, defined as the lowest temperature evoking nocifensive behaviour—was measured with an increasing-temperature hot plate (IITC Life Science, Woodland Hills, Calif., USA). […]
The total duration of paw licking and lifting were expressed to representing the nociceptive behaviour. […] Mechanical hyperalgesia values were determined as % by comparing the nociceptive thresholds measured at 2 and 4 hours after the application to the initial threshold values. Results are expressed as means±s.e.m. of the thermo- and mechanonociceptive threshold changes of n=11-11 animals/groups. Data were analysed with One-way ANOVA following Bonferroni's post-test in comparison to determine differences between the pre- and post-injection values of the respective groups.

[4] = system: sciatic nerve ligation-induced cold allodynia; assay: Sciatic nerve ligation-induced cold allodynia in mice (paw withdrawal latency from 0° C. water); type: in vivo, male C57Bl/6 mice; conditions: mouse, injured paw, days 3 and 7 after nerve ligation
Procedure: as §3
Mice were anaesthesized with a combination of ketamine and xylazine (100 mg/kg and 5 mg/kg i.p. respectively), but in rats Na-pentobarbital (40 mg/kg i.p) were used. […]
A noxious cold stimulus was applied by immersing one of the murine hindpaws in icy water, remaining the temperature steady at 0° C. Cold perception was assessed as the time taken by the animal to pulling out its paw from the cold water, the cut-off time was 180 seconds. […]
The paw withdrawal latency values were determined as % by comparing the latencies measured on day 3 and 7 after the operation to the mean initial latency values. […] Results are expressed as means±s.e.m of the withdrawal behaviour latency changes of n=6-6 mice per groups. […]

| Compound | sciatic nerve ligation-induced neuropathic mechanical hyperalgesia [1] | change of the mechanonociceptive thresholds, contralateral side of the operated rats [2] | inhibitory effect on mechanical allodynia [2] | mechanical allodynia (decrease of withdrawal threshold vs initial control) after drug injection [2] | change of the mechanonociceptive thresholds, sham-operated group [2] | drop of mechanonociceptive threshold after RTX at 2 hours (RTX-induced hyperalgesia; 20 mg/kg i.p. pretreatment) | drop of heat threshold after intraplantar RTX (RTX-induced hyperalgesia; 20 mg/kg i.p. pretreatment, maintained during 15 minutes, solvent group approx. 8 degree) | acute neurogenic inflammatory heat allodynia (RTX-induced hyperalgesia) | thermonociceptive threshold after formalin application ([3]; 1 hour, basal 44.8±1.7° C., saline treated mice 37.4±3° C.) | nocifensive behaviour (total duration of paw lickings and liftings), early phase ([3]; formalin i.pl., early phase (0-5 min), vs saline) | nocifensive behaviour (total duration of paw lickings and liftings), late phase ([3]; formalin i.pl., late phase (20-45 min), vs saline) | neuropathic cold hyperalgesia (cold allodynia, paw withdrawal latency) [4] | sciatic nerve ligation-induced neuropathic mechanical hyperalgesia ([1]; 20 mg/kg) | change of mechanonociceptive threshold after RTX at 4 hours (RTX-induced hyperalgesia; 20 mg/kg i.p. pretreatment, 4 hours, solvent group 35.3±3%) |
| --- | --- | --- | --- | --- | --- | --- | --- | --- | --- | --- | --- | --- | --- | --- |
| ON=CCCc1nc(-c2ccccc2)c(-c2ccccc2)o1 [SZV-1287, 3-(4,5-diphenyl-1,3-oxazol-2-yl)propanal oxime] | significantly decreased | No change | approximately 30% | 34.6±7.6% | No change | 22.1±7% | 1-2 °C | moderately decreased | 37.5±4 °C | significantly lower | significantly lower | did not influence | – | – |
| C=C(CNN)c1ccccc1 [SZV-1911, (2-phenyl-2-propen-1-yl)hydrazine] | – | No change | approximately 30% | 32.9±3.4% | No change | 14.7±6% | – | moderately decreased | – | – | – | did not influence | significantly diminished; also recorded: significantly decreased | 6.5±6% |
